Results: article PMC7033278, “A Nonpeptide Oxytocin Receptor Agonist for a Durable Relief of Inflammatory Pain” (Scientific Reports, 2020)
Read-outs that look alike come from different tables or passages of the source.

Experiments:
[1] = thermodynamic solubility in PBS pH 7.4; assay type: physicochemical; details: PBS buffer, read-out: thermodynamic water solubility (S)
Method: (§1) Solubility of LIT-001 was determined from solution of about 1 mg of compound in 500 μl of PBS at pH 7.4. (Figs. 1, S1) The solution was stirred at room temperature for 24 h and centrifuged at 15.000 × g for 5 min. The supernatant was diluted with a mixture of acetonitrile and water and analyzed by HPLC with a diode detector (Gilson; Kinetex 2.6 μm C18 100 A 50 × 4.6 mm column). […] The lipophilicity (LogD7.4) of LIT-001 was measured using […] of a stock solution diluted with different concentrations of octanol and PBS to cover a LogP range from −2 to + 4.5 in a final volume of 1 ml. After stirring for 1 h at room temperature (≈ 20 °C), the samples were centrifuged and the different phases were analyzed by HPLC (Gilson; diode detector, Kinetex 2.6 μ C18 100 A 50 × 4.6 mm column).

[2] = test system: V1aR (hV1AR); design: method as in PMID 30199637; details: cited from earlier work
[3] = test system: hOTR; design: method as in PMID 30199637; details: human receptor, cited from earlier work
[4] = test system: V2 vasopressin receptor (V2R); design: method as in PMID 30199637; details: cited from earlier work
[5] = target: T1, PDE4D2 (Homo sapiens, UniProt Q08499); assay: enzyme inhibition; assay type: biochemical
T1 construct: Eurofins (contract assay)
T1 sequence (Q08499 303-809): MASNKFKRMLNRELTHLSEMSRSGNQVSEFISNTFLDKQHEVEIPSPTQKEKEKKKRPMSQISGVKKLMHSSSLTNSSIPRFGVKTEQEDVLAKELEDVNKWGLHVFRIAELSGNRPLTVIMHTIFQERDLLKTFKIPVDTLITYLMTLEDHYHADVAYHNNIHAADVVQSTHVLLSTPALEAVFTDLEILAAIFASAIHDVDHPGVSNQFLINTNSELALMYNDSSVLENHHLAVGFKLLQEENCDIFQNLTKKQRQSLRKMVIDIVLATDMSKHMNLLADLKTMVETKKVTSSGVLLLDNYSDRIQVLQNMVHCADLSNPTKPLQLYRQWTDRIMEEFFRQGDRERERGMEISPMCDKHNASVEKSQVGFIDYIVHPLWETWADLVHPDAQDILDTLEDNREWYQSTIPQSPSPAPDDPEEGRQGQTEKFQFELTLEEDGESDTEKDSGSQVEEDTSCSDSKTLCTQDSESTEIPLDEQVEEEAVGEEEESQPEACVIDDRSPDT
Method: (§2) In vitro profiling of LIT-001 was performed by Eurofins as described in the Eurofins SafetyScreen-Functional panel, 2018[31]. The hepatotoxicity of LIT-001 was studied with cryo-preserved mouse hepatocytes. After unfreezing (optiTHAW and optiINCUBATE media, Xenotech) and cell viability control, cells (2 × 10^6 cells/ml) were dispatched in 96 well microtiterplates. LIT-001 was added to reach a concentration 1 μM in the presence of 1 × 10^6 cells/mL in a volume of 100 μl/well. The incubation was stopped at 4, 20, 40, 80 and 120 min in adding 100 μl of acetonitrile at 0 °C. A positive control was treated in the same conditions. All samples were analyzed by UHPLC coupled to a mass spectrometer (Shimadzu LC-MS 8030).

[6] = target: T2, Lck kinase (Homo sapiens, UniProt P06239); assay: enzyme inhibition; assay type: biochemical; details: range given for five enzymes together, below significance
T2 construct: Eurofins (contract assay)
Method: as §2

[7] = target: T3, COX(2) (Homo sapiens, UniProt P35354); assay: enzyme inhibition; assay type: biochemical
T3 construct: Eurofins (contract assay)
Method: as §2

[8] = target: T4, human recombinant COX(1) (Homo sapiens, UniProt P23219); assay: enzyme inhibition; assay type: biochemical; details: range given for five enzymes together, below significance
T4 construct: Eurofins (contract assay)
T4 sequence (P23219 24-599): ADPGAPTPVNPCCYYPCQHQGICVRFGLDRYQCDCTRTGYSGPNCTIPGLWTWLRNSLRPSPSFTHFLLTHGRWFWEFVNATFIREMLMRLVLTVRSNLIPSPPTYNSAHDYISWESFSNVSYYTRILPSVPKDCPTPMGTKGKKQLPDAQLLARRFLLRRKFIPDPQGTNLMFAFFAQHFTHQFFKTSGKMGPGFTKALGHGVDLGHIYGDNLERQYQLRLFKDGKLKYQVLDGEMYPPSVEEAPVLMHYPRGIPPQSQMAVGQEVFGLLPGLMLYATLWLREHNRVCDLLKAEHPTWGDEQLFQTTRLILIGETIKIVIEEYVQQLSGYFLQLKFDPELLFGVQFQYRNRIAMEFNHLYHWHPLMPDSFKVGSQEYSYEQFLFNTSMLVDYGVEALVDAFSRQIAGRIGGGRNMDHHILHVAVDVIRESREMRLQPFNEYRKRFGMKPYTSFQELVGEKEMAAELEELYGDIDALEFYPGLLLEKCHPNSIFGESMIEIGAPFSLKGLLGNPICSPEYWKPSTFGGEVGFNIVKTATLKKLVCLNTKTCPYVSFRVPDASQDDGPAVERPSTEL
Method: as §2

[9] = target: T5, MAO-A from human placenta (Homo sapiens, UniProt P21397); assay: enzyme inhibition; assay type: biochemical; details: range given for five enzymes together, below significance
T5 construct: MAO-A from human placenta; tissue Eurofins (contract assay); host or cells: human placenta
T5 sequence (P21397 whole entry): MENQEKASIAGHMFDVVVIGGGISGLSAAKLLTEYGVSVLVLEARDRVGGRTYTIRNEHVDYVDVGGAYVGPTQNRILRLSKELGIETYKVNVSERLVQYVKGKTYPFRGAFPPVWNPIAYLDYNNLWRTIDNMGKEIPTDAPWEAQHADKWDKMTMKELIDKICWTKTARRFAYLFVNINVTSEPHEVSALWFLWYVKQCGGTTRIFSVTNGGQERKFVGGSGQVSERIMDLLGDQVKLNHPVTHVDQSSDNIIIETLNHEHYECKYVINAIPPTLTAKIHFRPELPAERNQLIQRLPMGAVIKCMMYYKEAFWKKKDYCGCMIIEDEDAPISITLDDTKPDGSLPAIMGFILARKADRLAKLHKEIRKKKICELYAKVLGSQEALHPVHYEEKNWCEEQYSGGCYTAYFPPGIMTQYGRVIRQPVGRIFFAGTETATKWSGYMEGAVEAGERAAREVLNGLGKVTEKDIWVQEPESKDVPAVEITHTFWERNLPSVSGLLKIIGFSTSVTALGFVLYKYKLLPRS
Method: as §2

[10] = target: T6, PDE3A (Homo sapiens, UniProt Q14432); assay: enzyme inhibition; assay type: biochemical; details: range given for five enzymes together, below significance
T6 construct: Eurofins (contract assay)
T6 sequence (Q14432 whole entry): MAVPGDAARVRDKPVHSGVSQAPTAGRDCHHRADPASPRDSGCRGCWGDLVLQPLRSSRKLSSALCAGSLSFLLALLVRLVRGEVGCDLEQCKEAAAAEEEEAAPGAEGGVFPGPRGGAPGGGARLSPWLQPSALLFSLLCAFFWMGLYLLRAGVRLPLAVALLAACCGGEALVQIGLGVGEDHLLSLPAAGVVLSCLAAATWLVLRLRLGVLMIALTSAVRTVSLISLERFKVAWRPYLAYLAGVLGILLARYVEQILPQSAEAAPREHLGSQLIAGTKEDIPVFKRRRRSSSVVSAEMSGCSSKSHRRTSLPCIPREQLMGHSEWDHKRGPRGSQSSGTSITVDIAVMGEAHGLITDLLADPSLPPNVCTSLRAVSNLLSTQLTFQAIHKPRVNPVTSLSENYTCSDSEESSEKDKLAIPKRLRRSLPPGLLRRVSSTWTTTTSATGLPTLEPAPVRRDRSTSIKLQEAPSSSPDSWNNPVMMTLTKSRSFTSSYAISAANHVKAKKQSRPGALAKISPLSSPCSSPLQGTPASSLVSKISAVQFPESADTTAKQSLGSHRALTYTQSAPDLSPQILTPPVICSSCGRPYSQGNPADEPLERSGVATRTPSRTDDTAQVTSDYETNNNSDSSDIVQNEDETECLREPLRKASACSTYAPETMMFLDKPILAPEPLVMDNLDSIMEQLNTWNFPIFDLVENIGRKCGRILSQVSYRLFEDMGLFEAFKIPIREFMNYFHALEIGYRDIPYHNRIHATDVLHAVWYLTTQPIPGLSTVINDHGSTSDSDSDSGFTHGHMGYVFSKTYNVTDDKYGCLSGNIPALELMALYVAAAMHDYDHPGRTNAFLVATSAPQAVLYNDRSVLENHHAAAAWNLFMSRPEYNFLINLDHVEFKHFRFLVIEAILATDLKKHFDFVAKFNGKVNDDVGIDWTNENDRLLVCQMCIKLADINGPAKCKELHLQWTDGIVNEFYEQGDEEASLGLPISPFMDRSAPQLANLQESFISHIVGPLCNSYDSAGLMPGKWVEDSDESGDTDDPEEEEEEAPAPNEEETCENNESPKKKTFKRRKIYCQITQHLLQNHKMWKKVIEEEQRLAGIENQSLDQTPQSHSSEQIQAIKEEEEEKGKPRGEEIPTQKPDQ
Method: as §2

[11] = target: T7, acetylcholinesterase (Homo sapiens, UniProt P22303); assay: enzyme inhibition; assay type: biochemical; details: range given for five enzymes together, below significance
T7 construct: Eurofins (contract assay)
Method: as §2

[12] = lipophilicity LogD7.4 (octanol/PBS); assay type: physicochemical; details: experimental, octanol/PBS pH 7.4
Method: as §1

[13] = target: hERG (Homo sapiens, UniProt Q12809); assay: hERG inhibition, patch clamp method; assay type: cell-based
hERG, sequence (Q12809 whole entry): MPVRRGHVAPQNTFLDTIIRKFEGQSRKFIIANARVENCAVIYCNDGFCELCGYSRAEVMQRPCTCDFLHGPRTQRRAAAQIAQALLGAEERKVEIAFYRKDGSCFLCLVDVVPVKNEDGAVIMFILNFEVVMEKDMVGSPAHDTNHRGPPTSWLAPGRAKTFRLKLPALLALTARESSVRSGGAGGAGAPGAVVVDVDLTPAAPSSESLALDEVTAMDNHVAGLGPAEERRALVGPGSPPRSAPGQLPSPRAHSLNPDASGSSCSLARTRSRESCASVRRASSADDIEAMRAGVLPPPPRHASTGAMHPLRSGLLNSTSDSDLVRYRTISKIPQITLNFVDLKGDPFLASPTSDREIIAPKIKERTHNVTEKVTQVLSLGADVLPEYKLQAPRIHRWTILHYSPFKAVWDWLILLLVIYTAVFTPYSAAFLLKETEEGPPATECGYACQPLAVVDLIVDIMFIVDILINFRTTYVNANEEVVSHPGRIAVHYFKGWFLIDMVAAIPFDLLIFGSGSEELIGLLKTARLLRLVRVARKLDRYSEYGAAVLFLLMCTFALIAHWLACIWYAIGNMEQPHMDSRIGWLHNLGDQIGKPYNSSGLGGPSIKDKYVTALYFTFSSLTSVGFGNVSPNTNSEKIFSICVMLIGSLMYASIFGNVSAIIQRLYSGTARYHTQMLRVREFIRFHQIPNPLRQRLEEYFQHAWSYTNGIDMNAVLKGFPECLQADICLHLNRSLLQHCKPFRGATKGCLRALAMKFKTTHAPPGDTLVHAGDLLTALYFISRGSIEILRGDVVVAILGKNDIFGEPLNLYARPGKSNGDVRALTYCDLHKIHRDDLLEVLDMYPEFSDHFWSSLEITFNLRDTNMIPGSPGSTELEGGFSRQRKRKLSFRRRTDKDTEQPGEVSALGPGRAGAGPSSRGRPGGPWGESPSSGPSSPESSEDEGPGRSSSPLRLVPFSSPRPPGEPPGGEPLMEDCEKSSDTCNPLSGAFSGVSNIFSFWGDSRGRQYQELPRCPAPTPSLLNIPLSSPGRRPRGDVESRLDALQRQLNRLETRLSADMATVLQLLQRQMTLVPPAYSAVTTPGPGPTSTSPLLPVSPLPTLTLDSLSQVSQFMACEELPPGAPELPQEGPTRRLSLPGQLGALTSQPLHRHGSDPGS

[14] = target: T8, CYP 2C19 (Homo sapiens, UniProt P33261); assay: cytochrome inhibition, human liver microsomes; assay type: in vitro ADME
T8 construct: phosphate buffer containing human liver microsomes (0.2 mg/ml); from tissue; host or cells: human liver microsomes
Method: (§3) Cytochrome inhibition by LIT-001 was studied as follows. A stock solution of LIT-001 at 10 mM in DMSO was prepared and stored at 4 °C. Solutions containing the cytochrome substrates and control inhibitors or LIT-001 were prepared. 2 μl of substrate-inhibitor solutions were mixed with 176 μl of phosphate buffer containing human liver microsomes (0.2 mg/ml), 1 mM of NADPH and 3 mM of MgCl2. Height concentrations were tested: 0.03; 0.1; 0.3; 1; 3; 10; 30 and 100 μM. The reaction was initiated by addition of the co-factor after 5 min of incubation at 37 °C. After one hour of incubation, 200 μl of acetonitrile were added to stop enzymatic reactions and solubilize the products. Different control inhibitors were used and supernatants were analyzed by LC-MS/MS (UHPLC separation; Shimadzu LC-MS 8030). • Furafylline (CYP 1A2 inhibitor): 0.03; 0.1; 0.3; 1; 3; 10; 30 and 100 μM • Sulfaphenazole (CYP 2C9 inhibitor): 0.03; 0.1; 0.3; 1; 3; 10; 30 and 100 μM • Tranylcypromine (CYP 2C19 inhibitor): 0.03; 0.1; 0.3; 1; 3; 10; 30 and 100 μM • Quinidine (CYP […] inhibitor): 0.003; 0.01; 0.1; 0.5; 1; 5; 10 and 50 μM • Kétoconazole (CYP 3A4 inhibitor): 0.003; 0.01; 0.1; 0.5; 1; 5; 10 and 50 μM

[15] = target: T9, CYP 3A4 (Homo sapiens, UniProt P08684); assay: cytochrome inhibition, human liver microsomes; assay type: in vitro ADME
T9 construct: phosphate buffer containing human liver microsomes (0.2 mg/ml); from tissue; host or cells: human liver microsomes
Method: as §3

[16] = target: T10, CYP 2C9 (Homo sapiens, UniProt P11712); assay: cytochrome inhibition, human liver microsomes; assay type: in vitro ADME; details: 0.03-100 μM
T10 construct: phosphate buffer containing human liver microsomes (0.2 mg/ml); from tissue; host or cells: human liver microsomes
Method: as §3

[17] = target: T11, CYP 2D6 (Homo sapiens, UniProt P10635); assay: cytochrome inhibition, human liver microsomes; assay type: in vitro ADME; details: 0.03-100 μM
T11 construct: phosphate buffer containing human liver microsomes (0.2 mg/ml); from tissue; host or cells: human liver microsomes
T11 sequence (P10635 whole entry): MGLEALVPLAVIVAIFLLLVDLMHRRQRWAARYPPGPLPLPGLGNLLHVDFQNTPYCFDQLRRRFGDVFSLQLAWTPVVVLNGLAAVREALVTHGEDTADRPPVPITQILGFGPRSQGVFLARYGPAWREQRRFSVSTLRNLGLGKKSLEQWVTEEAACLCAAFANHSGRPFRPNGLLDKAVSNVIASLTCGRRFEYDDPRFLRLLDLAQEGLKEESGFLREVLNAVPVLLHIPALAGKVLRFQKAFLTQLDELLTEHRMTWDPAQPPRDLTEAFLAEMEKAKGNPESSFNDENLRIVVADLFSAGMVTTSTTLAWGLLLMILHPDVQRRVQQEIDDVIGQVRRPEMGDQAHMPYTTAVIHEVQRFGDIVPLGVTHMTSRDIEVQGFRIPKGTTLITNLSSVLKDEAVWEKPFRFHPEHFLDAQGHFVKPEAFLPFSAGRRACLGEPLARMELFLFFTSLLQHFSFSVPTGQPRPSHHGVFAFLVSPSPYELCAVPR
Method: as §3

[18] = target: T12, CYP 1A2 (Homo sapiens, UniProt P05177); assay: cytochrome inhibition, human liver microsomes; assay type: in vitro ADME
T12 construct: phosphate buffer containing human liver microsomes (0.2 mg/ml); from tissue; host or cells: human liver microsomes
T12 sequence (P05177 whole entry): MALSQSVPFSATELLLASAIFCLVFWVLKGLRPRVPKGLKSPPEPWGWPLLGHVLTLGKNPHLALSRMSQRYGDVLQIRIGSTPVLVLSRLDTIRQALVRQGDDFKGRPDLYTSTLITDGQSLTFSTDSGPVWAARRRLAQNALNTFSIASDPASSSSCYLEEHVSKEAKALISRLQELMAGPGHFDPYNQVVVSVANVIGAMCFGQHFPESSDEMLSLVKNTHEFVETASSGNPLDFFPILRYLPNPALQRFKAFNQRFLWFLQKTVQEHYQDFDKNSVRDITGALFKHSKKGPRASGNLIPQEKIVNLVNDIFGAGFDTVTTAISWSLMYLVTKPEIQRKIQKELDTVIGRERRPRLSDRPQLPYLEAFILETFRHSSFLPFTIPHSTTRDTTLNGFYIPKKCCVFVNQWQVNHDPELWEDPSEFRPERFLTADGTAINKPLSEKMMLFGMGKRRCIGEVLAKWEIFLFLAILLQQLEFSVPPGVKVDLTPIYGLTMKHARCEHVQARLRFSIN
Method: as §3

Cc1cc(C(=O)N2Cc3cnn(C)c3Nc3ccccc32)ccc1CNC(=O)N1CCC[C@H]1C(=S)N(C)C [LIT-001]
solubility thermodynamic at 24 h ([1]; pH 7.4, aqueous buffer, thermodynamic from solid): 530 ± 30 µM
solubility thermodynamic at 24 h ([1]; pH 7.4): 340 µg/mL
EC50 (hV1AR) ([2]; agonist mode): non significant
IC50 ([2]; antagonist mode, read-out: IC50, antagonism of vasopressin induced calcium release on V1aR): 5.9 µM
EC50 ([3]; agonist): 0.025 µM
Emax (hOTR) ([3]; efficacy): 96%
affinity for V2R [4]: low micromolar affinity
inhibition at 5 µM [5]: 23.1%
inhibition at 5 µM [6]: 6.4 to 9.5%
inhibition at 5 µM [7]: 24.6%
inhibition at 5 µM [8]: 6.4 to 9.5%
inhibition at 5 µM [9]: 6.4 to 9.5%
inhibition at 5 µM [10]: 6.4 to 9.5%
inhibition at 5 µM [11]: 6.4 to 9.5%
logD [12]: 2 ± 0.3
inhibition at 1 µM ([13]; 1 μM): 9.5%
inhibition at 10 µM ([13]; 10 μM): 10.6%
IC50 [14]: 21 µM
IC50 [15]: 11 µM
interaction with CYP 2C9 [16]: did not interact
interaction with CYP 2D6 [17]: did not interact
IC50 [18]: 51 µM
